# Data: patent US9474790B2, “Stable, protracted GLP-1/glucagon receptor co-agonists for medical use” (Novo Nordisk A/S, priority 2013, dated 2016)
# Numbered stars: 1 amine (or outer) side, 2 acyl side, 3 side chain; on linkers, the order of the positions; unused ones are H or OH. Square brackets hold non-standard residues; d marks the D form. Side chains are listed from the residue outwards. Peptide text beside a SMILES is read from it. * marks the point of attachment. C18 diacid = O=C(O)CCCCCCCCCCCCCCCCC(=O)*; γGlu = O=C(O)[C@H](CCC(=O)[*:2])N[*:1]; AEEA = NCCOCCOCC(=O)O; Ac3c = NC1(C(=O)O)CC1; Aib = CC(C)(N)C(=O)O
# How the values were obtained:
# human GLP-1 receptor = biological target: T1, human GLP-1 receptor (Homo sapiens, UniProt P43220); test: GLP-1 receptor potency, CRE luciferase reporter gene assay in BHK cells; format: cell-based; settings: BHK cells expressing human GLP-1 receptor, read-out: EC50 GLP-1R
# T1 construct: expressed in transfected cells; host or cells: BHK cells (parent BHKTS13), clone FCW467-12A/KZ10-1, with CRE luciferase
# T1 sequence (P43220 24-463): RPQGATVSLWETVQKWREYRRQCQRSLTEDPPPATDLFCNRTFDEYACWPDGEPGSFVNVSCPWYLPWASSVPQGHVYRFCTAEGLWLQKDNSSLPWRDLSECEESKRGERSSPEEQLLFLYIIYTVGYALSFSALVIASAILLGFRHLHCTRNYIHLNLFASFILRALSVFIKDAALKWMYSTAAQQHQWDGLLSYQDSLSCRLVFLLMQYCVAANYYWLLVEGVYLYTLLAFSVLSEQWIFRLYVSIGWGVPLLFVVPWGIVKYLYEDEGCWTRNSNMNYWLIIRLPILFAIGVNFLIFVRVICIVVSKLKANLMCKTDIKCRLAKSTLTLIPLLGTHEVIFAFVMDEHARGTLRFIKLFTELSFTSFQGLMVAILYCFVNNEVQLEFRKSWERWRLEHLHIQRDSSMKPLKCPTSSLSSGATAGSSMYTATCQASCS
# Description: The purpose of this example was to test the potency, of the glucagon derivatives of the invention, in vitro. The in vitro potency is the measure of human GLP-1 receptor or glucagon receptor activation, respectively, in a whole cell assay.
# In vitro potency was determined by measuring the response of human GLP-1 or glucagon receptor, respectively, in a reporter gene assay. The assay was performed in a stably transfected BHK cell line that expresses either the human GLP-1 receptor or the human glucagon receptor and contains the DNA for the cAMP response element (CRE) coupled to a promoter and the gene for firefly luciferase (CRE luciferase). […] When assay incubation was completed, the luciferase substrate (luciferin) was added and the enzyme converted luciferin to oxyluciferin and produces bioluminescence. The luminescence was measured as the readout for the assay.
# The cells used in this assay (clone FCW467-12A/KZ10-1) were BHK cells with BHKTS13 as a parent cell line. The cells were derived from a clone (FCW467-12A) that expresses the human GLP-1 receptor and were established by further transfection with
# CRE luciferase to obtain the current clone.
# The cells were cultured at 5% CO2 in DMEM medium with 10% FBS, 1×GlutaMAX, 1 mg/ml G418, 240 nM MTX (methotrexate) and 1% pen/strep (penicillin/streptomycin). They were aliquoted and stored in liquid nitrogen. Before each assay, an aliquot was taken up and washed three times in PBS before being suspended at the desired concentration in assay medium. For 96-well plates the suspension was made to give a final concentration of 5×10EE3 cells/well.
# The following chemicals were used in the assay: Pluronic F-68 (10%) (Gibco 2404), ovalbumin (Sigma A5503), DMEM w/o phenol red (Gibco 11880-028), 1 M Hepes (Gibco 15630), Glutamax 100× (Gibco 35050) and steadylite plus (PerkinElmer 6016757).
# Assay Medium consisted of DMEM w/o phenol red, 10 mM Hepes, lx GlutaMAX, 2% Ovalbumin and 0.2% Pluronic F-68.
# Cell stocks were thawed in a 37° C. water bath. Cells were washed three times in PBS. The cells were counted and adjusted to 5×10EE3 cells/50 μl (1×10EE5 cells/ml) in Assay Medium. A 50 μl aliquot of cells was transferred to each well in the assay plate.
# Stocks of the test compounds and reference compounds were diluted to a concentration of […] in Assay Medium. Compounds were diluted 10-fold to give the following concentrations: 2×10EE-6 M, 2×10EE-7 M, 2×10EE-8 M; 2×10EE-9 M, 2×10EE-10 M, 2×10EE-11 M, 2×10EE-12 M and 2×10EE-13 M. For each compound a blank assay medium control was also included.
# A 50 μl aliquot of compound or blank was transferred from the dilution plate to the assay plate. Compounds were tested at the following final concentrations: 1×10EE-6 M, 1×10EE-7 M, 1×10EE-8 M; 1×10EE-9 M, 1×10EE-10 M, 1×10EE-11 M and 1×10EE-12 M and 1×10EE-13 M.
# The assay plate was incubated for 3 h in a 5% CO2 incubator at 37° C. The assay plate was removed from the incubator and allowed to stand at room temperature for 15 min. A 100 μl aliquot of steadylite plus reagent was added to each well of the assay plate (reagent is light sensitive). Each assay plate was covered with aluminum foil to protect it from light and shaken for 30 min at room temperature. Each assay plate was read in a Perkin Elmer TopCount NXT instrument.
# The data from the TopCount instrument was transferred to GraphPad Prism software. The software performed a non-linear regression (log(agonist) vs response-Variable slope (four parameter)). EC50 values were calculated by the software and reported in pM.
# [1] = Thioflavin T (ThT) fibrillation assay for physical stability; format: physicochemical; settings: 250 μM in 10 mM HEPES buffer, pH 7.5, 37° C., shaking 960 rpm
# Method in brief: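 Peptide at 250 μM in 10 mM HEPES pH 7.5 with 1 μM ThT, at 37° C with 960 rpm orbital shaking. Fluorescence (ex 444/em 485 nm) read every 20 min after 10 min pre-incubation; sigmoidal fit gives lag time (t0−2τ) and kapp (1/τ). Recovery is RP-HPLC peptide in the centrifuged, 0.22 μm-filtered supernatant as % of initial.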
Structure (SMILES),EC50 (human GLP-1 receptor),THT assay Lag time (Ex. 76) [1]
"CC(C)C[C@H](NC(=O)[C@H](CC(=O)O)NC(=O)[C@H](CC(C)C)NC(=O)[C@H](Cc1ccc(O)cc1)NC(=O)[C@H](CCCCN)NC(=O)[C@H](CO)NC(=O)[C@H](CC(C)C)NC(=O)[C@H](CC(=O)O)NC(=O)[C@H](CO)NC(=O)[C@@H](NC(=O)[C@H](Cc1ccccc1)NC(=O)[C@@H](NC(=O)CNC(=O)[C@H](CCC(N)=O)NC(=O)C(C)(C)NC(=O)[C@@H](N)Cc1c[nH]cn1)[C@@H](C)O)[C@@H](C)O)C(=O)N[C@@H](CCCNC(=N)N)C(=O)N[C@@H](CCCNC(=N)N)C(=O)N[C@@H](C)C(=O)N[C@@H](CCC(N)=O)C(=O)N[C@@H](CC(=O)O)C(=O)N[C@@H](Cc1ccccc1)C(=O)N[C@H](C(=O)N[C@@H](CCC(N)=O)C(=O)N[C@@H](Cc1c[nH]c2ccccc12)C(=O)N[C@@H](CC(C)C)C(=O)N[C@@H](CC(C)C)C(=O)N[C@@H](CCCCNC(=O)CC[C@H](NC(=O)CC[C@H](NC(=O)[C@H](CO)NC(=O)[C@H](CCC(=O)O)NC(=O)[C@H](CO)NC(=O)CC[C@H](NC(=O)CC[C@H](NC(=O)CCCCCCCCCCCCCCCCC(=O)O)C(=O)O)C(=O)O)C(=O)O)C(=O)O)C(=O)N[C@H](C(N)=O)[C@@H](C)O)C(C)C [Example 53, N^ε28-[(4S)-4-carboxy-4-[[(4S)-4-carboxy-4-[[(2S)-2-[[(2S)-4-carboxy-2-[[(2S)-2-[[(4S)-4-carboxy-4-[[(4S)-4-carboxy-4-(17-carboxyheptadecanoylamino)butanoyl]amino]butanoyl]amino]-3-hydroxypropanoyl]amino]butanoyl]amino]-3-hydroxypropanoyl]amino]butanoyl]amino]butanoyl]-[Aib2,Leu10,Leu16,Leu27,Lys28]-Glucagon amide] (H-H[Aib]QGTFTSDLSKYLDLRRAQDFVQWLLK([γGlu-γGlu-Ser-Glu-Ser-γGlu-γGlu-C18 diacid])T-NH2; N-terminus assumed)",11 pM,45 h
"CC(C)C[C@H](NC(=O)[C@H](Cc1ccc(O)cc1)NC(=O)[C@H](CCCCN)NC(=O)[C@H](CO)NC(=O)[C@H](CC(C)C)NC(=O)[C@H](CC(=O)O)NC(=O)[C@H](CO)NC(=O)[C@@H](NC(=O)[C@H](Cc1ccccc1)NC(=O)[C@@H](NC(=O)CNC(=O)[C@H](CCC(N)=O)NC(=O)C1(NC(=O)[C@@H](N)Cc2c[nH]cn2)CC1)[C@@H](C)O)[C@@H](C)O)C(=O)N[C@@H](CCC(=O)O)C(=O)N[C@@H](CO)C(=O)N[C@@H](CCCNC(=N)N)C(=O)N[C@@H](CCCNC(=N)N)C(=O)N[C@@H](C)C(=O)N[C@@H](CCCNC(=N)N)C(=O)N[C@@H](CCC(=O)O)C(=O)N[C@@H](Cc1ccccc1)C(=O)N[C@H](C(=O)N[C@@H](CCC(N)=O)C(=O)N[C@@H](Cc1c[nH]c2ccccc12)C(=O)N[C@@H](CC(C)C)C(=O)N[C@@H](CC(C)C)C(=O)N[C@@H](CCCCNC(=O)CC[C@H](NC(=O)CC[C@H](NC(=O)COCCOCCNC(=O)COCCOCCNC(=O)CC[C@H](NC(=O)CCCCCCCCCCCCCCCCC(=O)O)C(=O)O)C(=O)O)C(=O)O)C(=O)N[C@H](C(N)=O)[C@@H](C)O)C(C)C [Example 50, N^ε28-[(4S)-4-carboxy-4-[[(4S)-4-carboxy-4-[[2-[2-[2-[[2-[2-[2-[[(4S)-4-carboxy-4-(17-carboxyheptadecanoylamino)butanoyl]amino]ethoxy]ethoxy]acetyl]amino]ethoxy]ethoxy]acetyl]amino]butanoyl]amino]butanoyl]-[Acpr2,Leu10,Glu15,Arg20,Glu21,Leu27,Lys28]-Glucagon amide] (H-H[Ac3c]QGTFTSDLSKYLESRRAREFVQWLLK([γGlu-γGlu-AEEA-AEEA-γGlu-C18 diacid])T-NH2; N-terminus assumed)",11 pM,28 h
CC(C)C[C@H](NC(=O)[C@H](Cc1ccc(O)cc1)NC(=O)[C@H](CCCCN)NC(=O)[C@H](CO)NC(=O)[C@H](CC(C)C)NC(=O)[C@H](CC(=O)O)NC(=O)[C@H](CO)NC(=O)[C@@H](NC(=O)[C@H](Cc1ccccc1)NC(=O)[C@@H](NC(=O)CNC(=O)[C@H](CCC(N)=O)NC(=O)C(C)(C)NC(=O)[C@@H](N)Cc1c[nH]cn1)[C@@H](C)O)[C@@H](C)O)C(=O)N[C@@H](CC(=O)O)C(=O)N[C@@H](CO)C(=O)N[C@@H](CCCNC(=N)N)C(=O)N[C@@H](CCCNC(=N)N)C(=O)N[C@@H](C)C(=O)N[C@@H](CCCNC(=N)N)C(=O)N[C@@H](CCCCNC(=O)CC[C@H](NC(=O)CC[C@H](NC(=O)COCCOCCNC(=O)COCCOCCNC(=O)CC[C@H](NC(=O)CCCCCCCCCCCCCCCCC(=O)O)C(=O)O)C(=O)O)C(=O)O)C(=O)N[C@@H](Cc1ccccc1)C(=O)N[C@H](C(=O)N[C@@H](CCC(N)=O)C(=O)N[C@@H](Cc1c[nH]c2ccccc12)C(=O)N[C@@H](CC(C)C)C(=O)N[C@@H](CC(C)C)C(=O)N[C@@H](CO)C(=O)N[C@H](C(N)=O)[C@@H](C)O)C(C)C [Example 2] (H-H[Aib]QGTFTSDLSKYLDSRRARK([γGlu-γGlu-AEEA-AEEA-γGlu-C18 diacid])FVQWLLST-NH2; N-terminus assumed),44 pM,–
"CC(C)C[C@H](NC(=O)[C@H](Cc1ccc(O)cc1)NC(=O)[C@H](CCCCN)NC(=O)[C@H](CO)NC(=O)[C@H](CC(C)C)NC(=O)[C@H](CC(=O)O)NC(=O)[C@H](CO)NC(=O)[C@@H](NC(=O)[C@H](Cc1ccccc1)NC(=O)[C@@H](NC(=O)CNC(=O)[C@H](CCC(N)=O)NC(=O)C(C)(C)NC(=O)[C@@H](N)Cc1c[nH]cn1)[C@@H](C)O)[C@@H](C)O)C(=O)N[C@@H](CC(=O)O)C(=O)N[C@@H](CO)C(=O)N[C@@H](CCCNC(=N)N)C(=O)N[C@@H](CCCNC(=N)N)C(=O)N[C@@H](C)C(=O)N[C@@H](CCCNC(=N)N)C(=O)N[C@@H](CC(=O)O)C(=O)N[C@@H](Cc1ccccc1)C(=O)N[C@H](C(=O)N[C@@H](CCCCNC(=O)CC[C@H](NC(=O)CC[C@H](NC(=O)COCCOCCNC(=O)COCCOCCNC(=O)CC[C@H](NC(=O)CCCCCCCCCCCCCCCCC(=O)O)C(=O)O)C(=O)O)C(=O)O)C(=O)N[C@@H](Cc1c[nH]c2ccccc12)C(=O)N[C@@H](CC(C)C)C(=O)N[C@@H](CC(C)C)C(=O)N[C@@H](CO)C(=O)N[C@H](C(N)=O)[C@@H](C)O)C(C)C [Example 3, N^ε24-[(4S)-4-carboxy-4-[[(4S)-4-carboxy-4-[[2-[2-[2-[[2-[2-[2-[[(4S)-4-carboxy-4-(17-carboxyheptadecanoylamino)butanoyl]amino]ethoxy]ethoxy]acetyl]amino]ethoxy]ethoxy]acetyl]amino]butanoyl]amino]butanoyl]-[Aib2,Leu10,Arg20,Lys24,Leu27,Ser28]-Glucagon amide] (H-H[Aib]QGTFTSDLSKYLDSRRARDFVK([γGlu-γGlu-AEEA-AEEA-γGlu-C18 diacid])WLLST-NH2; N-terminus assumed)",6 pM,–
